We go through 23 compounds from patent US12157730B2, “Heteroaryl derivative, method for producing same, and pharmaceutical composition comprising same as effective component” (VORONOI INC., priority 2019, dated 2024).

The structures appear in SMILES notation.

For this experiment, the target named is T1, Ba/F3 cell EGFR Exon20 ins NPH (Homo sapiens, UniProt P00533, INS773NPH).
T1 construct: expressed in transfected cells; host or cells: Ba/F3
Nature of the experiment: Ba/F3 cell proliferation suppression, EGFR Exon20 ins NPH. The experiment is classed as cell-based. As to conditions: GI50 class; Ba/F3 cell line with NPH inserted at Exon20 of EGFR; 72 hours. The procedure, abridged:
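Growth suppression determined as GI50 following 72 h exposure across 12 concentrations up to 50 um, with viability by luminescent ATP assay (CellTiter-Glo).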
Turning to `C#Cc1cccc([C@H]2CCON2c2cc(Nc3cc(NC(=O)C=C)c(N4CCC(N5CCOCC5)CC4)cc3OC)ncn2)c1` [compound 650, N-(5-((6-((R)-3-(3-ethynylphenyl)isoxazolidine-2-yl)pyrimidine-4-yl)amino)-4-methoxy-2-(4-morpholinopiperidine-1-yl)phenyl)acrylamide], the “Ba/F3 (NPH) Activity” value is “A (GI50 < 50 nM)”.

Consider `C=CC(=O)Nc1cc(Nc2cc(N3OCC[C@@H]3c3ccc4ccccc4c3)ncn2)c(OC)cc1N1CCO[C@H](C)C1` [compound 663, N-(4-methoxy-2-((R)-2-methylmorpholino)-5-((6-((R)-3-(naphthalene-2-yl)isoxazolidine-2-yl)pyrimidine-4-yl)amino)phenyl)acrylamide], for which the “Ba/F3 (NPH) Activity” value is on record as “B (50 nM ≤ GI50 < 500 nM)”.

For `C=CC(=O)Nc1cc(Nc2cc(N3OCC[C@@H]3Cc3cccc(Cl)c3C)ncn2)c(OC)cc1N1CCC(N2CCN(C3CC3)[C@H](C)C2)CC1` [compound 1027, N-(5-((6-((S)-3-(3-chloro-2-methylbenzyl)isoxazolidine-2-yl)pyrimidine-4-yl)amino)-2-(4-((R)-4-cyclopropyl-3-methylpiperazine-1-yl)piperidine-1-yl)-4-methoxyphenyl) acrylamide], the “Ba/F3 (NPH) Activity” value is “A (GI50 < 50 nM)”.

Take `C=CC(=O)Nc1cc(Nc2cc(N3OCC[C@@H]3c3cccc(F)c3F)ncn2)c(OC)cc1N1CCC(N2CC[C@H](N(C)C)C2)CC1` [compound 340, N-(5-((6-((R)-3-(2,3-difluorophenyl)isoxazolidine-2-yl)pyrimidine-4-yl)amino)-2-(4-((S)-3-(dimethylamino)pyrolidine-1-yl)piperidine-1-yl)-4-methoxyphenyl) acrylamide]: the “Ba/F3 (NPH) Activity” value is listed as “A (GI50 < 50 nM)”.

`C=CC(=O)Nc1cc(Nc2cc(N3OCC[C@@H]3c3ccc(F)cc3F)ncn2)c(OC)cc1N1CCC(N2C[C@@H]3C[C@H]2CN3CC)CC1` [compound 382, N-(5-((6-((R)-3-(2,4-difluorophenyl)isoxazolidine-2-yl)pyrimidine-4-yl)amino)-2-(4-((1S,4S)-5-ethyl-2,5-diazabicyclo [2.2.1]heptane-2-yl)piperidine-1-yl)-4-methoxyphenyl) acrylamide]: the “Ba/F3 (NPH) Activity” value was “A (GI50 < 50 nM)”.

`C=CC(=O)Nc1cc(Nc2cc(N3OCC[C@@H]3c3ccc(Cl)c(Cl)c3)ncn2)c(OC)cc1N1C[C@@H]2C[C@H]1CN2CC` [compound 678, N-(5-((6-((R)-3-(3,4-dichlorophenyl)isoxazolidine-2-yl)pyrimidine-4-yl)amino)-2-((1S,4S)-5-ethyl-2,5-diazabicyclo[2.2.1]heptane-2-yl)-4-methoxyphenyl) acrylamide]: the “Ba/F3 (NPH) Activity” value was “A (GI50 < 50 nM)”.

Turning to `C=CC(=O)Nc1cc(Nc2cc(N3OCC[C@@H]3c3ccc(Cl)c(Cl)c3)ncn2)c(OC)cc1N1CCOCC1` [compound 615, N-(5-((6-((R)-3-(3,4-dichlorophenyl)isoxazolidine-2-yl)pyrimidine-4-yl)amino)-4-methoxy-2-morpholinophenyl) acrylamide], the “Ba/F3 (NPH) Activity” value is on record as “A (GI50 < 50 nM)”.

With `C=CC(=O)Nc1cc(Nc2cc(N3OCC[C@@H]3c3ccc(F)cc3F)ncn2)c(OC)cc1N1CCN(CC2CC2)CC1` [compound 380, N-(2-(4-(cyclopropylmethyl)piperazine-1-yl)-5-((6-((R)-3-(2,4-difluorophenyl)isoxazolidine-2-yl)pyrimidine-4-yl)amino)-4-methoxyphenyl) acrylamide], the “Ba/F3 (NPH) Activity” value was “A (GI50 < 50 nM)”.

Turning to `C=CC(=O)Nc1cc(Nc2cc(N3OCC[C@@H]3c3cccc(C#N)c3)ncn2)c(OC)cc1N1CCC(N2CCN(CC)CC2)CC1` [compound 399, N-(5-((6-((R)-3-(3-cyanophenyl)isoxazolidine-2-yl)pyrimidine-4-yl)amino)-2-(4-(4-ethylpiperazine-1-yl)piperidine-1-yl)-4-methoxyphenyl) acrylamide], the “Ba/F3 (NPH) Activity” value was “B (50 nM ≤ GI50 < 500 nM)”.

For the compound `C=CC(=O)Nc1cc(Nc2cc(N3OCC[C@@H]3c3ccc(F)cc3F)ncn2)c(OC)cc1N1CCN(C2CCCC2)CC1` [compound 348, N-(2-(4-cyclopentylpiperazine-1-yl)-5-((6-((R)-3-(2,4-difluorophenyl)isoxazolidine-2-yl)pyrimidine-4-yl)amino)-4-methoxyphenyl) acrylamide], the “Ba/F3 (NPH) Activity” value is “A (GI50 < 50 nM)”.

Turning to `C=CC(=O)Nc1cc(Nc2cc(N3OCC[C@@H]3c3cc(F)cc(F)c3)ncn2)c(OC)cc1N1CCC(N2CCN(C(C)CC)CC2)CC1` (stereo partly drawn) [compound 894, N-(2-(4-(4-(sec-butyl)piperazine-1-yl)piperidine-1-yl)-5-((6-((R)-3-(3,5-difluorophenyl)isoxazolidine-2-yl)pyrimidine-4-yl)amino)-4-methoxyphenyl) acrylamide], the “Ba/F3 (NPH) Activity” value is recorded as “A (GI50 < 50 nM)”.

In the case of `C=CC(=O)Nc1cc(Nc2cc(N3OCC[C@@H]3c3cc(F)cc(Cl)c3)ncn2)c(OC)cc1N1CCC(N2CCO[C@H](C)C2)CC1` [compound 596, N-(5-((6-((R)-3-(3-chloro-5-fluorophenyl)isoxazolidine-2-yl)pyrimidine-4-yl)amino)-4-methoxy-2-(4-((R)-2-methylmorpholino)piperidine-1-yl)phenyl)acrylamide], the “Ba/F3 (NPH) Activity” value is “A (GI50 < 50 nM)”.

On to `C=CC(=O)Nc1cc(Nc2cc(N3OCC[C@@H]3c3cc(F)cc(Cl)c3)ncn2)c(OC)cc1N1CCN(C)CC1` [compound 537, N-(5-((6-((R)-3-(3-chloro-5-fluorophenyl)isoxazolidine-2-yl)pyrimidine-4-yl)amino)-4-methoxy-2-(4-methylpiperazine-1-yl)phenyl)acrylamide], for which the “Ba/F3 (NPH) Activity” value was “A (GI50 < 50 nM)”.

For `C=CC(=O)Nc1cc(Nc2cc(N3OCC[C@@H]3Cc3ccccc3)ncn2)c(OC)cc1N(C)CCN(C)C` [compound 947, N-(5-((6-((S)-3-benzylisoxazolidine-2-yl)pyrimidine-4-yl)amino)-2-((2-(dimethylamino)ethyl)(methyl)amino)-4-methoxyphenyl) acrylamide], the “Ba/F3 (NPH) Activity” value is “A (GI50 < 50 nM)”.

Consider `C=CC(=O)Nc1cc(Nc2cc(N3OCC[C@@H]3c3cccc(F)c3)ncn2)c(OC)cc1N1CCN(CC)CC1` [Example 246, N-(2-(4-ethylpiperazine-1-yl)-5-((6-((R)-3-(3-fluorophenyl)isoxazolidine-2-yl)pyrimidine-4-yl)amino)-4-methoxyphenyl) acrylamide], for which the “Ba/F3 (NPH) Activity” value is “A (GI50 < 50 nM)”.

Regarding `C=CC(=O)Nc1cc(Nc2cc(N3OCC[C@@H]3c3cccc(C#N)c3)ncn2)c(OC)cc1N1CCC(N2C[C@H]3C[C@@H]2CO3)CC1` [compound 389, N-(2-(4-((1R,4R)-2-oxa-5-azabicyclo[2.2.1]heptane-5-yl)piperidine-1-yl)-5-((6-((R)-3-(3-cyanophenyl)isoxazolidine-2-yl)pyrimidine-4-yl)amino)-4-methoxyphenyl) acrylamide], the “Ba/F3 (NPH) Activity” value is “A (GI50 < 50 nM)”.

For the compound `C=CC(=O)Nc1cc(Nc2cc(N3OCC[C@@H]3c3ccc(Cl)c(Cl)c3)ncn2)c(OC)cc1N1CCC(N2CCN(C(C)C)CC2)CC1` [compound 689, N-(5-((6-((R)-3-(3,4-dichlorophenyl)isoxazolidine-2-yl)pyrimidine-4-yl)amino)-2-(4-(4-isopropylpiperazine-1-yl)piperidine-1-yl)-4-methoxyphenyl) acrylamide], the “Ba/F3 (NPH) Activity” value is “B (50 nM ≤ GI50 < 500 nM)”.

With `C=CC(=O)Nc1cc(Nc2cc(N3OCC[C@@H]3c3cccc(Cl)c3C)ncn2)c(OC)cc1N1CCN(C)CC1` [compound 584, N-(5-((6-((R)-3-(3-chloro-2-methylphenyl)isoxazolidine-2-yl)pyrimidine-4-yl)amino)-4-methoxy-2-(4-methylpiperazine-1-yl)phenyl)acrylamide], the “Ba/F3 (NPH) Activity” value is “A (GI50 < 50 nM)”.

On to `C=CC(=O)Nc1cc(Nc2cc(N3OCC[C@@H]3c3ccc(C)nc3)ncn2)c(OC)cc1N1CCN(C2CC2)CC1` [Example 46, N-(2-(4-cyclopropylpiperazine-1-yl)-4-methoxy-5-((6-((R)-3-(6-methylpyridine-3-yl)isoxazolidine-2-yl)pyrimidine-4-yl)amino)phenyl) acrylamide], for which the “Ba/F3 (NPH) Activity” value is “C (500 nM ≤ GI50 < 5000 nM)”.

In the case of `C=CC(=O)Nc1cc(Nc2cc(N3OCC[C@@H]3c3cccc(F)c3Cl)ncn2)c(OC)cc1N1CCC(N2CCN(C3COC3)CC2)CC1` [Example 201, N-(5-((6-((R)-3-(2-chloro-3-fluorophenyl)isoxazolidine-2-yl)pyrimidine-4-yl)amino)-4-methoxy-2-(4-(4-(oxetane-3-yl)piperazine-1-yl)piperidine-1-yl)phenyl)acrylamide], the “Ba/F3 (NPH) Activity” value is recorded as “A (GI50 < 50 nM)”.

Regarding `C=CC(=O)Nc1cc(Nc2cc(N3OCC[C@@H]3c3cc(F)ccc3F)ncn2)c(OC)cc1N1CCC(N2CCN(C3CCC3)CC2)CC1` [Example 77, N-(2-(4-(4-cyclobutylpiperazine-1-yl)piperidine-1-yl)-5-((6-((R)-3-(2,5-difluorophenyl)isoxazolidine-2-yl)pyrimidine-4-yl)amino)-4-methoxyphenyl) acrylamide], the “Ba/F3 (NPH) Activity” value is “A (GI50 < 50 nM)”.

Consider `C=CC(=O)Nc1cc(Nc2cc(N3OCC[C@@H]3c3ccc(Cl)cc3F)ncn2)c(OC)cc1N1CCC(N2CCN(CC)CC2)CC1` [compound 409, N-(5-((6-((R)-3-(4-chloro-2-fluorophenyl)isoxazolidine-2-yl)pyrimidine-4-yl)amino)-2-(4-(4-ethylpiperazine-1-yl)piperidine-1-yl)-4-methoxyphenyl) acrylamide], for which the “Ba/F3 (NPH) Activity” value is listed as “A (GI50 < 50 nM)”.

As for `C=CC(=O)Nc1cc(Nc2cc(N3OCC[C@@H]3c3cc(F)cc(F)c3)ncn2)c(OC)cc1N1CC[C@H](N2CCOCC2)C1` [Example 272, N-(5-((6-((R)-3-(3,5-difluorophenyl)isoxazolidine-2-yl)pyrimidine-4-yl)amino)-4-methoxy-2-((S)-3-morpholinopyrolidine-1-yl)phenyl)acrylamide], the “Ba/F3 (NPH) Activity” value is listed as “B (50 nM ≤ GI50 < 500 nM)”.
